According to patent US6355799B1, “Substituted benzene compounds, process for their preparation, and herbicidal and defoliant compositions containing them” (ISK Americas Incorporated, priority 1997, dated 2002):

Key:
Format in all cases: in vivo
[1] = test system: velvetleaf (Abutilon theophrasti, ABUTH); experiment: Post-emerge test, greenhouse herbicide activity screening; details: post-emerge, 14 days after application, rating scale 0-100
Method in brief: (§1)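 Compounds in acetone were track-sprayed at 15–1000 g ai/ha: pre-emergence onto soil sown the previous day, then top-watered to incorporate and later bottom-watered; post-emergence onto 2–3 leaf plants with 0.25% v/v surfactant, bottom-watered only. Ratings on a 0–100 phytotoxicity scale were taken at day 14.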

[2] = test system: barnyardgrass (Echinochloa crus-galli, ECHCG); experiment: as above; details: post-emerge, 14 days after application, rating scale 0-100
Method in brief: as §1

[3] = test system: sicklepod (Cassia obtusifolia, CASOB); experiment: as above; details: post-emerge, 14 days after application, rating scale 0-100
Method in brief: as §1

[4] = test system: ivyleaf morningglory (Ipomoea hederacea, IPOHE); experiment: as above; details: post-emerge, 14 days after application, rating scale 0-100
Method in brief: as §1

[5] = test system: large crabgrass (Digitaria sanguinalis, DIGSA); experiment: as above; details: post-emerge, 14 days after application, rating scale 0-100
Method in brief: as §1

[6] = test system: johnsongrass (Sorghum halepense, SORHA); experiment: as above; details: post-emerge, 14 days after application, rating scale 0-100
Method in brief: as §1

[7] = test system: green foxtail (Setaria viridis, SETVI); experiment: as above; details: post-emerge, 14 days after application, rating scale 0-100
Method in brief: as §1

[8] = test system: redroot pigweed (Amaranthus retroflexus, AMARE); experiment: as above; details: post-emerge, 14 days after application
Method in brief: as §1

[9] = test system: lambsquarters (Chenopodium album, CHEAL); experiment: as above; details: post-emerge, 14 days after application, rating scale 0-100
Method in brief: as §1

[10] = test system: field corn (Zea mays L., var. Dekalb 535, CORN); experiment: Post-emerge test, crop safety; details: post-emerge, 14 days after application, rating scale 0-100
Method in brief: (§2)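 Compounds in acetone were track-sprayed at 15-1000 g ai/ha (187 l/ha) on sandy loam pots: pre-emerge one day after seeding, post-emerge at 2-3 leaf stage with 0.25% v/v non-ionic surfactant. Phytotoxicity was rated 14 days later on a 0 (no damage) to 100 (complete death) scale.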

[11] = test system: upland rice (Oryza sp., var. Tebonnet, RICE); experiment: Post-emerge test, crop safety; details: post-emerge, 14 days after application, rating scale 0-100
Method in brief: as §2

[12] = test system: velvetleaf (Abutilon theophrasti, ABUTH); experiment: Pre-emerge test, greenhouse herbicide activity screening; details: phytotoxicity rating 0-100, 14 days after application
Method in brief: as §2

[13] = test system: barnyardgrass (Echinochloa crus-galli, ECHCG); experiment: as above; details: phytotoxicity rating 0-100, 14 days after application
Method in brief: as §2

[14] = test system: sicklepod (Cassia obtusifolia, CASOB); experiment: as above; details: phytotoxicity rating 0-100, 14 days after application
Method in brief: as §2

[15] = test system: ivyleaf morningglory (Ipomoea hederacea, IPOHE); experiment: as above; details: phytotoxicity rating 0-100, 14 days after application
Method in brief: as §2

[16] = test system: large crabgrass (Digitaria sanguinalis, DIGSA); experiment: as above; details: phytotoxicity rating 0-100, 14 days after application
Method in brief: as §2

[17] = test system: johnsongrass (Sorghum halepense, SORHA); experiment: as above; details: phytotoxicity rating 0-100, 14 days after application
Method in brief: as §2

[18] = test system: green foxtail (Setaria viridis, SETVI); experiment: as above; details: phytotoxicity rating 0-100, 14 days after application
Method in brief: as §2

[19] = test system: lambsquarters (Chenopodium album, CHEAL); experiment: as above; details: phytotoxicity rating 0-100, 14 days after application
Method in brief: as §2

[20] = test system: field corn (Zea mays L., var. Dekalb 535, CORN); experiment: Pre-emerge test, crop safety; details: crop damage rating 0-100, 14 days after application
Method in brief: (§3)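 Fourteen days after spraying, crop and weed injury was graded visually from 0, no effect, to 100, every plant dead. Test substances were dissolved in acetone and applied at 15–1000 g ai/ha with a flat-fan nozzle. Application was either pre-emergence, one day after sowing, or post-emergence at the 2–3 leaf stage.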

[21] = test system: upland rice (Oryza sp., var. Tebonnet, RICE); experiment: Pre-emerge test, crop safety; details: crop damage rating 0-100, 14 days after application
Method in brief: as §3

[22] = test system: redroot pigweed (Amaranthus retroflexus, AMARE); experiment: Pre-emerge test, greenhouse herbicide activity screening; details: phytotoxicity rating 0-100, 14 days after application
Method in brief: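 Compounds in acetone were track-sprayed at 187 l/ha, 15–1000 g ai/ha, onto sandy loam pots. Pre-emerge seeds were sown one day before spraying, with surface watering afterwards. Post-emerge plants were at the 2–3 leaf stage and sprayed with 0.25% v/v non-ionic surfactant. Injury was rated 0–100 at 14 days.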

[23] = 63 g ai/ha, rating scale 0-100 (0 no damage, 100 complete death)
[24] = 250 g ai/ha, rating scale 0-100

COc1c(Cl)cc(F)c(-n2c(=O)cc(C(F)(F)F)n(C)c2=O)c1NC(=O)OCc1ccc(F)cc1 [4-7]
phytotoxicity rating ABUTH ([1]; 63 g ai/ha): 100
phytotoxicity rating ABUTH ([1]; 250 g ai/ha): 100
phytotoxicity rating ECHCG ([2]; 63 g ai/ha): 50
phytotoxicity rating ECHCG ([2]; 250 g ai/ha): 100
phytotoxicity rating CASOB ([3]; 63 g ai/ha): 100
phytotoxicity rating CASOB ([3]; 250 g ai/ha): 100
phytotoxicity rating IPOHE ([4]; 63 g ai/ha): 100
phytotoxicity rating IPOHE ([4]; 250 g ai/ha): 100
phytotoxicity rating DIGSA ([5]; 63 g ai/ha): 40
phytotoxicity rating DIGSA ([5]; 250 g ai/ha): 90
phytotoxicity rating SORHA ([6]; 63 g ai/ha): 90
phytotoxicity rating SORHA ([6]; 250 g ai/ha): 90
phytotoxicity rating SETVI ([7]; 63 g ai/ha): 70
phytotoxicity rating SETVI ([7]; 250 g ai/ha): 100
phytotoxicity rating AMARE [8, 23]: 100
phytotoxicity rating AMARE [8, 24]: 100
phytotoxicity rating CHEAL ([9]; 63 g ai/ha): 100
phytotoxicity rating CHEAL ([9]; 250 g ai/ha): 100
phytotoxicity rating CORN (crop damage) ([10]; 63 g ai/ha): 90
phytotoxicity rating CORN (crop damage) ([10]; 250 g ai/ha): 100
phytotoxicity rating RICE (crop damage) ([11]; 63 g ai/ha): 65
phytotoxicity rating RICE (crop damage) ([11]; 250 g ai/ha): 90
Pre-emerge Herbicidal Activity ABUTH ([12]; 63 g ai/ha): 100
Pre-emerge Herbicidal Activity ABUTH ([12]; 250 g ai/ha): 100
Pre-emerge Herbicidal Activity ECHCG ([13]; 63 g ai/ha): 70
Pre-emerge Herbicidal Activity ECHCG ([13]; 250 g ai/ha): 90
Pre-emerge Herbicidal Activity CASOB ([14]; 63 g ai/ha): 70
Pre-emerge Herbicidal Activity CASOB ([14]; 250 g ai/ha): 100
Pre-emerge Herbicidal Activity IPOHE ([15]; 63 g ai/ha): 80
Pre-emerge Herbicidal Activity IPOHE ([15]; 250 g ai/ha): 100
Pre-emerge Herbicidal Activity DIGSA ([16]; 63 g ai/ha): 100
Pre-emerge Herbicidal Activity DIGSA ([16]; 250 g ai/ha): 100
Pre-emerge Herbicidal Activity SORHA ([17]; 63 g ai/ha): 80
Pre-emerge Herbicidal Activity SORHA ([17]; 250 g ai/ha): 95
Pre-emerge Herbicidal Activity SETVI ([18]; 63 g ai/ha): 100
Pre-emerge Herbicidal Activity SETVI ([18]; 250 g ai/ha): 100
Pre-emerge Herbicidal Activity CHEAL ([19]; 63 g ai/ha): 100
Pre-emerge Herbicidal Activity CHEAL ([19]; 250 g ai/ha): 100
Pre-emerge Herbicidal Activity CORN ([20]; 63 g ai/ha): 60
Pre-emerge Herbicidal Activity CORN ([20]; 250 g ai/ha): 95
Pre-emerge Herbicidal Activity RICE ([21]; 63 g ai/ha): 70
Pre-emerge Herbicidal Activity RICE ([21]; 250 g ai/ha): 100
Pre-emerge Herbicidal Activity AMARE ([22]; 63 g ai/ha): 100
Pre-emerge Herbicidal Activity AMARE ([22]; 250 g ai/ha): 100

Cn1c(C(F)(F)F)cc(=O)n(-c2c(F)cc(Cl)c(OCC#N)c2NC(=O)OCc2ccccc2)c1=O [4-23]
phytotoxicity rating ABUTH ([1]; 63 g ai/ha): 100
phytotoxicity rating ABUTH ([1]; 250 g ai/ha): 100
phytotoxicity rating ECHCG ([2]; 63 g ai/ha): 20
phytotoxicity rating ECHCG ([2]; 250 g ai/ha): 60
phytotoxicity rating CASOB ([3]; 63 g ai/ha): 80
phytotoxicity rating CASOB ([3]; 250 g ai/ha): 100
phytotoxicity rating IPOHE ([4]; 63 g ai/ha): 100
phytotoxicity rating IPOHE ([4]; 250 g ai/ha): 100
phytotoxicity rating DIGSA ([5]; 63 g ai/ha): 10
phytotoxicity rating DIGSA ([5]; 250 g ai/ha): 40
phytotoxicity rating SORHA ([6]; 63 g ai/ha): 10
phytotoxicity rating SORHA ([6]; 250 g ai/ha): 50
phytotoxicity rating SETVI ([7]; 63 g ai/ha): 40
phytotoxicity rating SETVI ([7]; 250 g ai/ha): 70
phytotoxicity rating AMARE [8, 23]: 100
phytotoxicity rating AMARE [8, 24]: 100
phytotoxicity rating CHEAL ([9]; 63 g ai/ha): 80
phytotoxicity rating CHEAL ([9]; 250 g ai/ha): 100
phytotoxicity rating CORN (crop damage) ([10]; 63 g ai/ha): 35
phytotoxicity rating CORN (crop damage) ([10]; 250 g ai/ha): 80
phytotoxicity rating RICE (crop damage) ([11]; 63 g ai/ha): 60
phytotoxicity rating RICE (crop damage) ([11]; 250 g ai/ha): 80
Pre-emerge Herbicidal Activity ABUTH ([12]; 63 g ai/ha): 100
Pre-emerge Herbicidal Activity ABUTH ([12]; 250 g ai/ha): 100
Pre-emerge Herbicidal Activity ECHCG ([13]; 63 g ai/ha): 80
Pre-emerge Herbicidal Activity ECHCG ([13]; 250 g ai/ha): 95
Pre-emerge Herbicidal Activity CASOB ([14]; 63 g ai/ha): 80
Pre-emerge Herbicidal Activity CASOB ([14]; 250 g ai/ha): 100
Pre-emerge Herbicidal Activity IPOHE ([15]; 63 g ai/ha): 100
Pre-emerge Herbicidal Activity IPOHE ([15]; 250 g ai/ha): 80
Pre-emerge Herbicidal Activity DIGSA ([16]; 63 g ai/ha): 80
Pre-emerge Herbicidal Activity DIGSA ([16]; 250 g ai/ha): 100
Pre-emerge Herbicidal Activity SORHA ([17]; 63 g ai/ha): 70
Pre-emerge Herbicidal Activity SORHA ([17]; 250 g ai/ha): 90
Pre-emerge Herbicidal Activity SETVI ([18]; 63 g ai/ha): 80
Pre-emerge Herbicidal Activity SETVI ([18]; 250 g ai/ha): 100
Pre-emerge Herbicidal Activity CHEAL ([19]; 63 g ai/ha): 100
Pre-emerge Herbicidal Activity CHEAL ([19]; 250 g ai/ha): 100
Pre-emerge Herbicidal Activity CORN ([20]; 63 g ai/ha): 35
Pre-emerge Herbicidal Activity CORN ([20]; 250 g ai/ha): 90
Pre-emerge Herbicidal Activity RICE ([21]; 63 g ai/ha): 60
Pre-emerge Herbicidal Activity RICE ([21]; 250 g ai/ha): 90
Pre-emerge Herbicidal Activity AMARE ([22]; 63 g ai/ha): 100
Pre-emerge Herbicidal Activity AMARE ([22]; 250 g ai/ha): 100
